Results taken from patent US20040063738A1, “Substituted heterocyclic phthalic acid diamide arthropodicides” (priority 2003, published 2004).

melting point: 220 to 225 °C
Compound: CC(C)NC(=O)c1c(I)cccc1C(=O)Nc1ccc(OCC(F)(F)F)nc1 [Compound 1, 3-iodo-N^2-(1-methylethyl)-N^1-[6-(2,2,2-trifluoroethoxy)-3-pyridinyl]-1,2-benzenedicarboxamide]
